Laboratory results reported in PMC9820559, “Investigation of the Fuzzy Complex between RSV Nucleoprotein and Phosphoprotein to Optimize an Inhibition Assay by Fluorescence Polarization” (International Journal of Molecular Sciences, 2022).
Peptide text beside a SMILES is read from it. * marks the point of attachment. FITC = O=C1OC2(c3ccc(O)cc3Oc3cc(O)ccc32)c2ccc(NC(=S)*)cc21; X1 = Cc1cc(C)n2c1C=C1C=CC(CCC(=O)*)=[N+]1[B-]2(C#N)C#N

Target: T1, RSV N-RNA complex (Human respiratory syncytial virus A, UniProt P03418)
T1 construct: Full-length N was produced by co-expression with the C-terminal domain of RSV P protein in E. coli BL21(DE3); made in house; host or cells: E. coli BL21(DE3), co-transformed with pET-N and pGEX-P(161–241)
Assay: biochemical
Assay type: binding
Conditions: for FP values compared to fluorescein at the same N-RNA concentrations: 200 nM probe, also bound to N-RNA
Protocol: We carried out FP measurements using the fluorescent F11 peptide and N-RNA complex. […] No salt was added to promote high affinity.
We first measured binding of Fn peptides (200 nM) to N-RNA in Tris buffer by FP (Figure 5A,B). […] We fitted the data with ΔFPmax and Kd as parameters.
We therefore measured fluorescein FP in the presence of N-RNA. […] To test if fluorescein binds to the P-binding site on the N-RNA, we carried out a competition experiment with M76 (Figure 6C).
We first performed FP measurements in salt-free Tris pH 8 buffer (Figure 8A). We measured binding curves using 200 nM of fluorescent peptides.
Fluorescence polarization measurements were carried out on a Paradigm Detection Platform (Beckman Coulter, Brea, CA, USA) operating with a microplate reader, a fluorescein detection cartridge (excitation range 485/20 nm, emission range 535/25 nm for both parallel and perpendicular components) and the SpectraMax Pro 6.1 software (Molecular Devices, San Jose, CA, USA). Samples were placed in polystyrene black flat bottom 96-well microplates (Cellstar, Greiner bio-one, Frickenhausen, Germany) with 20 µL final volume in each well. If not stated otherwise, the final concentration of fluorescent ligands was 200 nM. The buffer was either 20 mM MES pH 6.5, salt-free or with 250 mM NaCl, or 20 mM Tris pH 8.0 salt-free or with 100 mM NaCl, supplemented with 0.01% Brij-35. Mixing was done using the corresponding plate reader option. The temperature was set to 20 °C. Data were recorded in top reading mode. Measurements were done in triplicate and after an incubation time of 30 min, if not indicated otherwise. Fluorescence polarization (FP) in mFP units was determined from the parallel (I∥) and perpendicular (I⊥) components of the emitted light according to Equation (4). A grating factor G of 1.2 was determined using 1 nM fluorescein in 1 mM NaOH and assuming a theoretical FP of 27 mFP [48]. Background signal was measured from wells containing only buffer, and the mean value was subtracted from each I∥ and I⊥ component. (4) FP (mP)=1000×(I∥−G∗I⊥)/(I∥+G×I⊥)
We assumed that the measured fluorescence polarization FP is a linear combination of the FP of the fluorescent probe in the absence of N protein (FPmin) and the FP of N-bound fluorescent probe (FPmax), weighted by the molar fraction. The molar fraction x = [P]bound/[P]0 can then be expressed as a ratio of FP differences (Equation (8)). (8) x=(FP−FPmin)/(FPmax−FPmin)=∆FP/∆FPmax
To determine the Kd value of a complex between a fluorescent probe and N protein, a series of samples with constant probe concentration and varying N concentration was measured. FP binding curves were fitted with a single binding site model and a 1:1 stoichiometry.

[1] = apparent Kd, fluorescent molecules 200 nM, Tris pH 8 without salt, calculated assuming FPmax = 500 mFP
[2] = Kd, BCNn peptides 200 nM, Tris pH 8.0, no salt, single site model
[3] = Kd, Fn peptides 200 nM, Tris pH 8.0 without salt, single site binding model
[4] = Kd, Fn peptides 200 nM, Tris pH 8.0 without salt, single site model combined with linear contribution (*)

Cc1cc(C)n2c1C=C1C=CC(CCC(=O)O)=[N+]1[B-]2(F)F [4,4′ difluoro BODIPY FL 4, 4,4′ difluoro BODIPY FL]
FP values compared to fluorescein at the same N-RNA concentrations (Tris pH 8 without salt): markedly lower | Kd [1]: 870 ± 140 µM

Cc1cc(C)n2c1C=C1C=CC(CCC(=O)N[C@@H](CCC(=O)O)C(=O)N[C@@H](CC(C)C)C(=O)N[C@@H](CCC(=O)O)C(=O)N[C@@H](CC(=O)O)C(=O)N[C@@H](Cc3ccccc3)C(=O)O)=[N+]1[B-]2(C#N)C#N [BCN5E, BCN-ELEDF-OH] (X1-ELEDF-OH)
Kd [2]: 9.8 ± 0.9 µM

Cc1cc(C)n2c1C=C1C=CC(CCC(=O)N[C@@H](CC(C)C)C(=O)N[C@@H](CCC(=O)O)C(=O)N[C@@H](CC(C)C)C(=O)N[C@@H](CCC(=O)O)C(=O)N[C@@H](CC(=O)O)C(=O)N[C@@H](Cc3ccccc3)C(=O)O)=[N+]1[B-]2(C#N)C#N [BCN6E, BCN-LELEDF-OH] (X1-LELEDF-OH)
Kd [2]: 2.3 ± 0.2 µM | Kd (Kd, BCNn peptides 200 nM, Tris pH 8.0, with salt (100 mM NaCl), (*) saturation not reached): 12.6 ± 1.6 µM

Cc1cc(C)n2c1C=C1C=CC(CCC(=O)N[C@@H](CC(=O)O)C(=O)N[C@@H](CC(C)C)C(=O)N[C@@H](CCC(=O)O)C(=O)N[C@@H](CC(C)C)C(=O)N[C@@H](CCC(=O)O)C(=O)N[C@@H](CC(=O)O)C(=O)N[C@@H](Cc3ccccc3)C(=O)O)=[N+]1[B-]2(C#N)C#N [BCN7E, BCN-DLELEDF-OH] (X1-DLELEDF-OH)
Kd [2]: 2.2 ± 0.2 µM

Cc1cc(C)n2c1C=C1C=CC(CCC(=O)N[C@@H](CCC(=O)O)C(=O)N[C@@H](CC(=O)O)C(=O)N[C@@H](CC(N)=O)C(=O)N[C@@H](CC(=O)O)C(=O)N[C@@H](CC(C)C)C(=O)N[C@@H](CCC(=O)O)C(=O)N[C@@H](CC(C)C)C(=O)N[C@@H](CCC(=O)O)C(=O)N[C@@H](CC(=O)O)C(=O)N[C@@H](Cc3ccccc3)C(=O)O)=[N+]1[B-]2(C#N)C#N [BCN10EE] (X1-EDNDLELEDF-OH)
Kd [2]: 0.16 ± 0.03 µM

Cc1cc(C)n2c1C=C1C=CC(CCC(=O)N[C@@H](CC(=O)O)C(=O)N[C@@H](CO)C(=O)N[C@@H](CC(=O)O)C(=O)N[C@@H](CC(N)=O)C(=O)N[C@@H](CC(=O)O)C(=O)N[C@@H](CC(C)C)C(=O)N[C@@H](CCC(=O)O)C(=O)N[C@@H](CC(C)C)C(=O)N[C@@H](CCC(=O)O)C(=O)N[C@@H](CC(=O)O)C(=O)N[C@@H](Cc3ccccc3)C(=O)O)=[N+]1[B-]2(C#N)C#N [BCN11SE] (X1-DSDNDLELEDF-OH)
Kd [2]: 0.8 µM

O=C(O)CC[C@H](NC(=S)Nc1ccc2c(c1)C(=O)OC21c2ccc(O)cc2Oc2cc(O)ccc21)C(=O)N[C@@H](CC(=O)O)C(=O)N[C@@H](Cc1ccccc1)C(=O)O [F3, ϕ-EDF-OH] ({FITC}-Glu-Asp-Phe-OH)
Kd [3]: 62 ± 19 µM

CC(C)C[C@H](NC(=S)Nc1ccc2c(c1)C(=O)OC21c2ccc(O)cc2Oc2cc(O)ccc21)C(=O)N[C@@H](CCC(=O)O)C(=O)N[C@@H](CC(=O)O)C(=O)N[C@@H](Cc1ccccc1)C(=O)O [F4, ϕ-LEDF-OH] ({FITC}-LEDF-OH)
Kd [3]: 35 ± 4 µM

CC(C)C[C@H](NC(=O)[C@H](CCC(=O)O)NC(=O)[C@H](CC(C)C)NC(=O)[C@H](CC(=O)O)NC(=S)Nc1ccc2c(c1)C(=O)OC21c2ccc(O)cc2Oc2cc(O)ccc21)C(=O)N[C@@H](CCC(=O)O)C(=O)N[C@@H](CC(=O)O)C(=O)N[C@@H](Cc1ccccc1)C(=O)O [F7E, ϕ-DLE237LEDF-OH] ({FITC}-DLELEDF-OH)
Kd [3]: 2.5 ± 0.3 µM

CC(C)C[C@H](NC(=O)[C@H](CCC(=O)O)NC(=O)[C@H](CC(C)C)NC(=O)[C@H](CC(=O)O)NC(=O)[C@H](CC(N)=O)NC(=O)[C@H](CC(=O)O)NC(=S)Nc1ccc2c(c1)C(=O)OC21c2ccc(O)cc2Oc2cc(O)ccc21)C(=O)N[C@@H](CCC(=O)O)C(=O)N[C@@H](CC(=O)O)C(=O)N[C@@H](Cc1ccccc1)C(=O)O [F9E, ϕ-DNDLE237LEDF-OH] ({FITC}-DNDLELEDF-OH)
Kd [3]: 2.2 ± 0.3 µM

CC(C)C[C@H](NC(=O)[C@H](CCC(=O)O)NC(=O)[C@H](CC(C)C)NC(=O)[C@H](CC(=O)O)NC(=O)[C@H](CC(N)=O)NC(=O)[C@H](CC(=O)O)NC(=O)[C@H](CCC(=O)O)NC(=O)[C@H](CC(=O)O)NC(=S)Nc1ccc2c(c1)C(=O)OC21c2ccc(O)cc2Oc2cc(O)ccc21)C(=O)N[C@@H](CCC(=O)O)C(=O)N[C@@H](CC(=O)O)C(=O)N[C@@H](Cc1ccccc1)C(=O)O [F11EE, ϕ-DE232DNDLE237LEDF-OH] ({FITC}-DEDNDLELEDF-OH)
ΔFPmax (Fn peptides 200 nM, Tris pH 8.0 without salt, single site binding model): 114 ± 6 mFP | ΔFPmax (Fn peptides 200 nM, Tris pH 8.0 without salt, single site model combined with linear contribution (*)): 93 ±13 mFP | Kd [4]: 0.15 µM | increase of affinity relative to F11 by phosphomimetic substitutions (Tris pH 8.0 without salt): 20 fold

CC(C)C[C@H](NC(=O)[C@H](CCC(=O)O)NC(=O)[C@H](CC(C)C)NC(=O)[C@H](CC(=O)O)NC(=O)[C@H](CC(N)=O)NC(=O)[C@H](CC(=O)O)NC(=O)[C@H](CO)NC(=O)[C@H](CC(=O)O)NC(=S)Nc1ccc2c(c1)C(=O)OC21c2ccc(O)cc2Oc2cc(O)ccc21)C(=O)N[C@@H](CCC(=O)O)C(=O)N[C@@H](CC(=O)O)C(=O)N[C@@H](Cc1ccccc1)C(=O)O [F11SE, ϕ-DS232DNDLE237LEDF-OH] ({FITC}-DSDNDLELEDF-OH)
Kd [3]: < 1 µM | Kd [4]: 0.62 µM

O=C(O)c1ccccc1-c1c2ccc(=O)cc-2oc2cc(O)ccc12 [Fluorescein 1, Fluorescein]
Kd [1]: 91 ± 5 µM

CCOC(=O)c1ccccc1-c1c2ccc(=O)cc-2oc2cc(O)ccc12 [Fluorescein ethyl ester 3, fluorescein ethyl ester]
Kd [1]: 250 ± 27 µM

COC(=O)c1ccccc1-c1c2ccc(=O)cc-2oc2cc(O)ccc12 [Fluorescein methyl ester 2, fluorescein methyl ester]
Kd [1]: 200 ± 8 µM

Cc1cc(C)n2c1C=C1C=CC(CCC(=O)O)=[N+]1[B-]2(C#N)C#N [dicyano BODIPY FL 5, 3-(5,5-dicyano-7,9-dimethyl-5H-4λ^4,5λ^4-dipyrrolo[1,2-c:2′,1′-f][1,3,2]diazaborinin-3-yl)propanoic acid]
FP values compared to fluorescein at the same N-RNA concentrations (Tris pH 8 without salt): markedly lower
